Measured values: ChEMBL document CHEMBL4004838, “Design and synthesis of novel phenyl -1, 4-beta-carboline-hybrid molecules as potential anticancer agents” (Eur J Med Chem, 2017)

Tests used:
Assay type in all cases: functional
M14 = assay: Growth inhibition of human M14 cells incubated for 48 hrs by sulforhodamine B assay; details: M14, 48 h
OVCAR-5 = assay: Growth inhibition of human OVCAR5 cells incubated for 48 hrs by sulforhodamine B assay; details: OVCAR-5, 48 h
A549 = assay: Growth inhibition of human A549/ATCC cells assessed as cell growth at 10^-5 M incubated for 48 hrs by sulforhodamine B assay relative to control; details: A549, 48 h, read-out: Activity
EKVX = assay: Growth inhibition of human EKVX cells assessed as cell growth at 10^-5 M incubated for 48 hrs by sulforhodamine B assay relative to control; details: read-out: Activity
HOP-62 = assay: Growth inhibition of human HOP62 cells assessed as cell growth at 10^-5 M incubated for 48 hrs by sulforhodamine B assay relative to control; details: HOP-62, 48 h, read-out: Activity
NCI-H460 = assay: Growth inhibition of human NCI-H460 cells assessed as cell growth at 10^-5 M incubated for 48 hrs by sulforhodamine B assay relative to control; details: NCI-H460, 48 h, read-out: Activity
HCT-116 = assay: Growth inhibition of human HCT116 cells assessed as cell growth at 10^-5 M incubated for 48 hrs by sulforhodamine B assay relative to control; details: HCT-116, 48 h, read-out: Activity
KM12 = assay: Growth inhibition of human KM12 cells assessed as cell growth at 10^-5 M incubated for 48 hrs by sulforhodamine B assay relative to control; details: KM12, 48 h, read-out: Activity
SF-268 = assay: Growth inhibition of human SF268 cells assessed as cell growth at 10^-5 M incubated for 48 hrs by sulforhodamine B assay relative to control; details: SF-268, 48 h, read-out: Activity
SNB-19 = assay: Growth inhibition of human SNB19 cells assessed as cell growth at 10^-5 M incubated for 48 hrs by sulforhodamine B assay relative to control; details: SNB-19, 48 h, read-out: Activity
SK-MEL-5 = assay: Growth inhibition of human SK-MEL-5 cells assessed as cell growth at 10^-5 M incubated for 48 hrs by sulforhodamine B assay relative to control; details: SK-MEL-5, 48 h, read-out: Activity
IGROV-1 = assay: Growth inhibition of human IGROV1 cells assessed as cell growth at 10^-5 M incubated for 48 hrs by sulforhodamine B assay relative to control; details: IGROV-1, 48 h, read-out: Activity
OVCAR-8 = assay: Growth inhibition of human OVCAR8 cells assessed as cell growth at 10^-5 M incubated for 48 hrs by sulforhodamine B assay relative to control; details: OVCAR-8, 48 h, read-out: Activity
SK-OV-3 = assay: Growth inhibition of human SKOV3 cells assessed as cell growth at 10^-5 M incubated for 48 hrs by sulforhodamine B assay relative to control; details: SK-OV-3, 48 h, read-out: Activity
A498 [1] = assay: Growth inhibition of human A498 cells assessed as cell growth at 10^-5 M incubated for 48 hrs by sulforhodamine B assay relative to control; details: A498, 48 h, read-out: Activity
SN12C = assay: Growth inhibition of human SN12C cells assessed as cell growth at 10^-5 M incubated for 48 hrs by sulforhodamine B assay relative to control; details: read-out: Activity
PC-3 = assay: Growth inhibition of human PC3 cells assessed as cell growth at 10^-5 M incubated for 48 hrs by sulforhodamine B assay relative to control; details: PC-3, 48 h, read-out: Activity
MCF7 = assay: Growth inhibition of human MCF7 cells assessed as cell growth at 10^-5 M incubated for 48 hrs by sulforhodamine B assay relative to control; details: MCF7, 48 h, read-out: Activity
A498 [2] = assay: Growth inhibition of human A498 cells assessed as cell growth at 1 uM incubated for 48 hrs by sulforhodamine B assay relative to control; details: A498, 48 h, read-out: Activity
BT-549 = assay: Growth inhibition of human BT549 cells assessed as cell growth at 100 uM incubated for 48 hrs by sulforhodamine B assay relative to control; details: BT-549, 48 h, read-out: Activity
[3] = read-out: LC50 (the source's name)
[4] = read-out: pLC50 (the source's name) (converted)

**Q.** How did the GI50 (M14; read-out: GI50) turn out when `c1ccc2[nH]c(-c3ccc(-c4nccc5c4[nH]c4ccccc45)cc3)nc2c1` was run?
**A.** The GI50 was 1.79 µM.

**Q.** And the CC50 (M14; [3])?
**A.** Its CC50 is 7.12 µM.

**Q.** What about the TGI (M14; read-out: TGI) of the same molecule?
**A.** Its TGI is 3.57 µM.

**Q.** What about the GI50 (M14; read-out: pGI50 (converted)) of the same molecule?
**A.** The GI50 was 1.78 µM.

**Q.** And the CC50 (M14; [4])?
**A.** Its CC50 is 7.08 µM.

**Q.** And the TGI (M14; read-out: pTGI (converted))?
**A.** The TGI was 3.55 µM.

**Q.** What about the GI50 (OVCAR-5; read-out: GI50) of the same molecule?
**A.** The GI50 was 2.43 µM.

**Q.** What about the CC50 (OVCAR-5; [3]) of the same molecule?
**A.** The CC50 was 5 µM.

**Q.** And the TGI (OVCAR-5; read-out: TGI)?
**A.** Its TGI is 6.47 µM.

**Q.** What about the GI50 (OVCAR-5; read-out: pGI50 (converted)) of the same molecule?
**A.** Its GI50 is 2.45 µM.

**Q.** What about the CC50 (OVCAR-5; [4]) of the same molecule?
**A.** The CC50 was 50.1 µM.

**Q.** What about the TGI (OVCAR-5; read-out: pTGI (converted)) of the same molecule?
**A.** Its TGI is 6.46 µM.

**Q.** What about the growth at 10 µM (A549) of the same molecule?
**A.** The growth at 10 µM was 21 to 45.7%.

**Q.** What about the growth at 10 µM (EKVX) of the same molecule?
**A.** Its growth at 10 µM is 13 to 81.2%.

**Q.** What about the growth at 10 µM (HOP-62) of the same molecule?
**A.** The growth at 10 µM was 2 to 86.1%.

**Q.** What about the growth at 10 µM (NCI-H460) of the same molecule?
**A.** The growth at 10 µM was 42.9%.

**Q.** And the growth at 10 µM (HCT-116)?
**A.** The growth at 10 µM was 1 to 16.3%.

**Q.** What about the growth at 10 µM (KM12) of the same molecule?
**A.** The growth at 10 µM was 19 to 76.6%.

**Q.** And the growth at 10 µM (SF-268)?
**A.** Its growth at 10 µM is 52.2%.

**Q.** And the growth at 10 µM (SNB-19)?
**A.** The growth at 10 µM was 27 to 55.1%.

**Q.** And the growth at 10 µM (SK-MEL-5)?
**A.** The growth at 10 µM was 16 to 62.6%.

**Q.** What about the growth at 10 µM (IGROV-1) of the same molecule?
**A.** The growth at 10 µM was 25 to 94.5%.

**Q.** What about the growth at 10 µM (OVCAR-8) of the same molecule?
**A.** The growth at 10 µM was 4 to 16.5%.

**Q.** And the growth at 10 µM (SK-OV-3)?
**A.** Its growth at 10 µM is 22 to 104%.

**Q.** And the growth at 10 µM (A498 [1])?
**A.** Its growth at 10 µM is 58 to 68.7%.

**Q.** What about the growth at 10 µM (SN12C) of the same molecule?
**A.** The growth at 10 µM was 60.9%.

**Q.** What about the growth at 10 µM (PC-3) of the same molecule?
**A.** The growth at 10 µM was 47 to 85.7%.

**Q.** What about the growth at 10 µM (MCF7) of the same molecule?
**A.** The growth at 10 µM was 17 to 30.4%.

**Q.** What about the growth at 1 µM (A498 [2]) of the same molecule?
**A.** The growth at 1 µM was 92%.

**Q.** And the growth at 100 µM (BT-549)?
**A.** Its growth at 100 µM is 43%.
